Read-outs that look alike come from different tables or passages of the source. No end group written: not given here.
T1: human TAS1R2-WT/TAS1R3-G832R (Homo sapiens, UniProt Q7RTX0+Q8TE23, G832R)
T1 construct: expressed in transfected cells; host or cells: HEK293T stably expressing Gα16gust44
T1 sequence (Q8TE23 20-839): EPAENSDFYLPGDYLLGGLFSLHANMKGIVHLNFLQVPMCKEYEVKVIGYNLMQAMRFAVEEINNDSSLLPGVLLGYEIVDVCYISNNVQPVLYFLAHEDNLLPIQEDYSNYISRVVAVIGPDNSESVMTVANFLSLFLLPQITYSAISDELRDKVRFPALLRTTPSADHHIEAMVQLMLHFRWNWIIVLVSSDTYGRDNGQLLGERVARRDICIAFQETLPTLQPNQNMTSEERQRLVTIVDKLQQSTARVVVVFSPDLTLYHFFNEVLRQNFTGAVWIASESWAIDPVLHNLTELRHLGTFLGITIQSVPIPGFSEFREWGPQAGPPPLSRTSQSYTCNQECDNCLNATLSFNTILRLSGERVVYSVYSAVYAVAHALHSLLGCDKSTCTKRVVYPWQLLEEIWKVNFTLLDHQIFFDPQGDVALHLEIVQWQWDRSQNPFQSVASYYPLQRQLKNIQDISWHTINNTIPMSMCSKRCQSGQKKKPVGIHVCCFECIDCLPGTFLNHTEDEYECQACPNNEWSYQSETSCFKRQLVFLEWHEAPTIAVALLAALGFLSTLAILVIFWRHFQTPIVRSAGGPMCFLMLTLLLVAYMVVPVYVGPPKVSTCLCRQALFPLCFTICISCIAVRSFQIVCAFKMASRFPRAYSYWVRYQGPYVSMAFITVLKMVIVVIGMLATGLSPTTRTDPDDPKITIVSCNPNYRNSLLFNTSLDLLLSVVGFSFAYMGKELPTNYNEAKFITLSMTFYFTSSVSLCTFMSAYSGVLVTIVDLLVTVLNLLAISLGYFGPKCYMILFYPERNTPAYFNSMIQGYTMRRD
T1 sequence (Q7RTX0 21-852 G832R): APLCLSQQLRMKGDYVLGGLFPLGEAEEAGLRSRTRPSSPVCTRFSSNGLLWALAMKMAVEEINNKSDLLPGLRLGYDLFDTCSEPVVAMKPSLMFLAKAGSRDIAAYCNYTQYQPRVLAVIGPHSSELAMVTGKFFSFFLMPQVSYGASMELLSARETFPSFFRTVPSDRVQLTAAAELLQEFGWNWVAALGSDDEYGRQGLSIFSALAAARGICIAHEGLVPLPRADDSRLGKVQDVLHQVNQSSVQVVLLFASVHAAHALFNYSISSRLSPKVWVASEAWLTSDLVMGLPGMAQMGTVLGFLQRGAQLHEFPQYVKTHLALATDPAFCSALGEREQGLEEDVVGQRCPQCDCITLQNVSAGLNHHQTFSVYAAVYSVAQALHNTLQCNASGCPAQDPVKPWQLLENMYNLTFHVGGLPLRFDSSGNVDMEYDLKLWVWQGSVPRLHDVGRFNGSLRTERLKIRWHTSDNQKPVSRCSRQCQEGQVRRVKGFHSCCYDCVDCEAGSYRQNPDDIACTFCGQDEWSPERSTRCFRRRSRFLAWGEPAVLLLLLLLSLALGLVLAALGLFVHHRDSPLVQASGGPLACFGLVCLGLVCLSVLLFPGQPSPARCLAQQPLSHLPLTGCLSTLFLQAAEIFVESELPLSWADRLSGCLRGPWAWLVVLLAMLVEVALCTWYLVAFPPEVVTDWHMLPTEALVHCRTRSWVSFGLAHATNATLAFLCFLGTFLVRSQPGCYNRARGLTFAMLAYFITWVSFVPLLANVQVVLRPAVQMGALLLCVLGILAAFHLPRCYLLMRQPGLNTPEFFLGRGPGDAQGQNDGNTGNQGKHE


Biological target: T1, human TAS1R2-WT/TAS1R3-G832R
Assay: Calcium mobilisation assay, TAS1R2-WT with TAS1R3 variant G832R
Assay type: cell-based
Conditions: for Max ΔF/F0: maximal signal amplitude
Description: The coding sequences for TAS1R2 and TAS1R3 were commercially synthesised, and the human codon was optimised for expression in human cells. The coding sequences of human TAS1R2 and TAS1R3 were subcloned and inserted into the mammalian expression vectors pcDNA6/myc-HisA and pcDNA4/myc-HisA (Invitrogen; Thermo Fisher Scientific; Illkirch, France) between the EcoRI and NotI restriction sites, generating the plasmids pcDNA6-TAS1R2 and pcDNA4-TAS1R3, respectively. To increase protein expression in mammalian cells, an upstream start codon was used, which was a sequence called MAX, corresponding to the QBI SP163 element also described in pcDNA4-HisMax (Invitrogen; Thermo Fisher Scientific; Illkirch, France). To measure the expression level of the receptor by immunohistochemistry, we used the FLAG sequence ([…]) in the C-terminal position, which encodes the FLAG tag epitope. SNP variants of TAS1R2 and TAS1R3 were constructed based on […], respectively, using site-directed mutagenesis (Genewiz; Leipzig, Germany).
The HEK293T cells were kindly provided by Jay P. Slack (Givaudan Flavors Corporation; Cincinnati, OH, USA). HEK293T cells stably transfected with Gα16gust44 [43, 67] were seeded in poly-D-lysine-coated clear-bottom black 96-well plates (0.35 × 10^5 cells/well) in high-glucose DMEM supplemented with 2 mM GlutaMAX, 10% dialysed foetal bovine serum with penicillin/streptomycin and G418 (400 μg/mL) at 37 °C and 6.3% CO2 in a humidified atmosphere as previously reported. […] As a negative control, HEK293T cells were mock-transfected with the empty expression vector. After a further 24 h of incubation, the HEK293T cells were washed with C1 buffer (130 mM NaCl, 5 mM KCl, 10 mM HEPES pH 7.4 and 2 mM CaCl2). The 96-well plates containing the cells were then stimulated with sweet-tasting compounds. […] Different concentration ranges were tested depending on the sweet compound injected. The Ca^2+ changes were expressed as fractional changes in fluorescent light intensity: ΔF/F = (F − F0)/F0, where F was the fluorescent light intensity at each point, and F0 was the value of emitted fluorescent light prior to stimulus application. To calculate dose–response relationships, the changes in fluorescence upon stimulus application were averaged, mock-subtracted and baseline-corrected. The dose–response data obtained were adjusted using a 4-parameter logistic equation. The half-maximal effective concentrations (EC50 values) and maximal signal amplitudes were calculated using SigmaPlot software (version 15.0) (Systat Software; San Jose, CA, USA).
For in vitro calcium mobilisation assay performed on hTAS1R2-SNPs, hTAS1R3-SNPs and mTAS1R3-I60T, 6 to 7 concentrations were tested for each sweet compound, plus buffer alone. All concentration–receptor combinations were measured in duplicate, and each experiment was repeated at least 4 times (8 wells/concentration). Results were expressed for each concentration as ΔF/F mean ± SEM and represented as dose–response curves.

Row | Molecule | R1 = Variant EC50/WT EC50 | Max ΔF/F0 | EC50 (read-out: EC50) [µM] | EC50 (brazzein) [µg/mL]
1 | CC1=CC(=O)NS(=O)(=O)O1 [Acesulfame K, acesulfame K] | 0.8 | 0.55 ± 0.03 | 468 ± 64 | –
2 | O=S(=O)(O)NC1CCCCC1 [Cyclamate, cyclamate] | – | – | 998 ± 46 | –
3 | C[C@H](CC[C@@H](O[C@@H]1O[C@H](CO[C@@H]2O[C@H](CO)[C@@H](O)[C@H](O)[C@H]2O)[C@@H](O)[C@H](O)[C@H]1O[C@@H]1O[C@H](CO)[C@@H](O)[C@H](O)[C@H]1O)C(C)(C)O)[C@H]1CC[C@@]2(C)[C@@H]3CC=C4[C@@H](CC[C@H](O[C@@H]5O[C@H](CO[C@@H]6O[C@H](CO)[C@@H](O)[C@H](O)[C@H]6O)[C@@H](O)[C@H](O)[C@H]5O)C4(C)C)[C@]3(C)[C@H](O)C[C@]12C [Mogroside V, mogroside V] | 0.6 | 1.23 ± 0.04 | 19.1 ± 1.7 | –
4 | COc1ccc(CCC(=O)c2c(O)cc(O[C@@H]3O[C@H](CO)[C@@H](O)[C@H](O)[C@H]3O[C@@H]3O[C@@H](C)[C@H](O)[C@@H](O)[C@H]3O)cc2O)cc1O [NHDC, neohesperidin dihydrochalcone] | 0.6 | 1.03 ± 0.01 | 28.1 ± 12.3 | –
5 | COC(=O)[C@H](Cc1ccccc1)NC(=O)[C@H](CC(=O)O)NCCC(C)(C)C [Neotame] | 0.7 | 0.88 ± 0.02 | 0.8 ± 0.07 | –
6 | C=C(C)[C@@H]1CC=C(/C=N/O)CC1 [Perillartine, perillartine] | 0.5 | 1.18 ± 0.14 | 7.2 ± 3 | –
7 | C=C1C[C@@]23CC[C@H]4[C@@](C)(CCC[C@@]4(C)C(=O)O[C@@H]4O[C@H](CO)[C@@H](O)[C@H](O[C@@H]5O[C@H](CO)[C@@H](O)[C@H](O)[C@H]5O)[C@H]4O[C@@H]4O[C@H](CO)[C@@H](O)[C@H](O)[C@H]4O)[C@@H]2CC[C@]1(O[C@@H]1O[C@H](CO)[C@@H](O)[C@H](O[C@@H]2O[C@H](CO)[C@@H](O)[C@H](O)[C@H]2O)[C@H]1O[C@@H]1O[C@H](CO)[C@@H](O)[C@H](O)[C@H]1O)C3 [Rebaudioside M, rebaudioside M] | 0.6 | 1.38 ± 0.07 | 22.7 ± 3.2 | –
8 | OC[C@H]1O[C@H](O[C@]2(CCl)O[C@H](CCl)[C@@H](O)[C@@H]2O)[C@H](O)[C@@H](O)[C@H]1Cl [Sucralose] | 0.7 | 0.91 ± 0.02 | 81 ± 4 | –
9 | brazzein (QDKCKKVYENYPVSKCQLANQCNYDCKLDKHARSGECFYDEKRNLQCICDYCEY; ends and bridges not checked; cysteine pairing not given here; UniProt P56552 1-54, looked up) [sweet-tasting protein obtained by recombinant production using the yeast Pichia pastoris] | 0.5 | 0.97 ± 0.07 | – | 52.8 ± 15.7
10 | thaumatin | 0.5 | 0.76 ± 0.03 | – | –
11 | thaumatin (protein, Eight disulfides, sweet-tasting plant protein, E957) ATFEIVNRCSYTVWAAASKGDAALDAGGRQLNSGESWTINVEPGTKGGKIWARTDCYFDDSGSGICKTGDCGGLLRCKRFGRPPTTLAEFSLNQYGKDYIDISNIKGFNVPMDFSPTTRGCRGVRCAADIVGQCPAKLKAPGGGCNDACTVFQTSEYCCTTGKCGPTEYSRFFKRLCPDAFSYVLDKPTTVTCPGSSNYRVTFCPTA | – | – | 5.7 ± 0.7 | –

From PMC11945486, “TAS1R2/TAS1R3 Single-Nucleotide Polymorphisms Affect Sweet Taste Receptor Activation by Sweeteners: The SWEET Project” (Nutrients, 2025)
